# US6534640B1, “Methods and compositions to alter the cell surface expression of phosphatidylserine and other clot-promoting plasma membrane phospholipids” (Blood Center Research Foundation, priority 1996, dated 2003)
# “Also recorded” adds a separate entry of the source.
# T1: human erythrocyte PL scramblase (Homo sapiens, UniProt O15162)
# T1 construct: PL scramblase purified from human erythrocytes; from tissue; host or cells: human erythrocyte ghost membranes
# T1 sequence (O15162 1-318): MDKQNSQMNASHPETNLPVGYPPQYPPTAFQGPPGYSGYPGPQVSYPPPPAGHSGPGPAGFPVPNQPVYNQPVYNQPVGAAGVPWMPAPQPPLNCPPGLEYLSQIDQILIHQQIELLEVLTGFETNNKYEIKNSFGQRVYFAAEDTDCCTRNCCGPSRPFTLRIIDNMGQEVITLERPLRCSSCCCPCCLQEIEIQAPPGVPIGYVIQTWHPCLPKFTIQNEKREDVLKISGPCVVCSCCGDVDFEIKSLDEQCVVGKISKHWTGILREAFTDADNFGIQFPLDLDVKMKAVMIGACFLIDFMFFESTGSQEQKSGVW
# T2: PL scramblase (Homo sapiens, UniProt O15162)
# T2 sequence (O15162 1-318): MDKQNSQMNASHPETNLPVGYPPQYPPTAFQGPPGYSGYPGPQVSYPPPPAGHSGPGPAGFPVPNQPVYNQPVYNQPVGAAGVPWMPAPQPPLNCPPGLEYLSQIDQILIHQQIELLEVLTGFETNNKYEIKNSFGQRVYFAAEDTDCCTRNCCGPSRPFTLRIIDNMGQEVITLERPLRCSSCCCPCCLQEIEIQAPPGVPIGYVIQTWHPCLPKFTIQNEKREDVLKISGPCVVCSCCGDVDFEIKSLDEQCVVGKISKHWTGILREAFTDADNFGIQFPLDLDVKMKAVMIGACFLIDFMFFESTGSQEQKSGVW
# Legend:
# [1] = biological target: T1, human erythrocyte PL scramblase; experiment: Treatment with hydroxylamine, then reconstitution into proteoliposomes and PL scramblase activity assay (NBD-PC); assay type: biochemical; settings: 1 M hydroxylamine, 1 hour, room temperature, neutral pH; assay in 2 mM Ca2+, 3 hours
# Experimental: Treatment with Hydroxylamine. PL scramblase was incubated 1 hour room temperature in 1 M hydroxylamine, 25 mM octylglucoside, 1 M Tris-HCl at pH 7.4. Match control samples of the protein were identically incubated under these conditions, omitting hydroxylamine. After incubation, samples were dialyzed and reconstituted into PL proteoliposomes for assay of PL scramblase activity.
# Membrane reconstitution and assay. PL scramblase was reconstituted into proteliposomes and activity determined as previously described(F. Bassé, et al., supra, 1996; J. G. Stout, et al, supra, 1997).
# FIG. 11 illustrates inactivation of PL scramblase by hydroxylamine. Purified human erythrocyte PL scramblase was incubated 1 hour, room temperature, in the presence of 50 mM octylglucoside, 1M TrisHCl, and either 0 (control) or 1M (hydroxylamine) hydroxylamine at pH 7.2. Untreated refers to sample maintained in low ionic strength sample buffer at 4° C. . Each sample was then dialyzed and reconstituted into proteoliposomes for assay of PL scramblase activity using NBD-PC as detailed in Bassé, et al., supra, 1996 with modifications of Stout, et al., supra, 1997. Ordinate indicates percent of total NBD-PC flipped during 3 hours. Incubation was in 2 mM Ca^2+, with correction for background measured in 0.1 mM EGTA. The error bars denote mean±SD, n=7. Combined data of three independent experiments performed on different days.
# PL scramblase [2] = biological target: T2, PL scramblase; settings: cited from earlier work
# [3] = system: human cell lines (Raji, HL60, Dami, HEL, W9, Jurkat, Molt-4, K562); experiment: Measurement of cell surface PS (FVa light chain binding, flow cytometry) in human cell lines after calcium ionophore; assay type: cell-based; settings: 2 μM A23187, 1.2 mM free Ca2+
# Experimental: Measurement of cell surface PS. Calcium ionophore-induced exposure of PS on the surface of all cell lines analyzed was detected by the specific binding of coagulation factor Va (light chain) as previously described (P. J. Sims, et al., J. Biol. Chem. 263:18205-18212, 1988; H. Kojima, et al., J. Clin. Invest. 94:2237-2243, 1994). Briefly, cells were washed twice to remove serum proteins and suspended (2×10^6 cells/ml) at 37° C. in RPMI 1640 supplemented with 0.1% BSA, 20 mM HEPES, and adjusted to 1.2 mM free [Ca^2+]. At time=0 A231.87 (0 or 2 μM final concentration) was added from 1 mM stock solution in DMSO, and at times indicated in figure legends, the reaction was stopped by addition of 6 mM EGTA. PS exposed on the cell surface at each time point was detected by incubating (10 minutes, room temperature) 50 μl of the cell suspension with […] FVa, followed by 10 μg/ml anti-FVa, to detect the cell-bound FVa light chain. After staining with 10 μg/ml Tri-Color conjugated goat anti-mouse IgG (CALTAG Laboratories, Burlingame, Calif.), single-cell fluorescence was quantitated by flow cytometry (FL3 channel, FACScan, Becton Dickinson Immunocytometry Systems). Use of Tri-Color conjugate to detect cell-bound FVa enabled simultaneous measurement of cell-associated GFP fluorescence in cell lines transformed with the pEGFP-C2 expression plasmid (fluorescence of GFP detected in FL1 channel). In experiments in which cell lysis was monitored by uptake of propidium iodide, cells were stained for bound FVa with FITC-conjugate of goat anti-mouse IgG (FL1 channel) substituting for Tri-Color conjugate, and propidium iodide was detected in FL3 channel. Propidium iodide (0.5 μg/ml) was added immediately before dilution for flow cytometry.
# FIG. 8 depicts western blot analysis of PL scramblase in various human cell lines. Constitutive expression of PL scramblase was analyzed in the human cell lines indicated. […] At times shown (abscissa), EGTA was added and cells analyzed for surface exposed PS as detected by cell-bound FVa light chain (see Materials and Methods). […]
# PL scramblase [4] = biological target: T2, PL scramblase; experiment: PL scramblase activity: Ca2+-dependent transbilayer movement of NBD-PC in reconstituted PC/PS proteoliposomes; assay type: biochemical; set-up: PCR was performed on a full-length clone using the primers; made in house; host or cells: E. coli TB1 (pMAL-C2)
# Experimental: Reconstitution of PL scramblase or scramblase fusion protein into proteoliposomes. Reconstitution and functional activity were performed essentially as previously described (F. Bassé, et al., J. Biol. Chem. 271:17205-17210, 1996; J. G. Stout, et al., J. Clin. Invest. 99:2232-2238, 1997). Briefly, a mixture of PC and PS (9:1 molar ratio) was dried under a stream of nitrogen and resuspended in 100 mM Tris, 100 mM KCl, 0.1 mM EGTA, pH 7.4 (Tris buffer). Protein samples to be reconstituted were added to the liposomes at a final lipid concentration of 4 mg/ml in the presence of 60 mM OG, and dialyzed overnight at 4° C. against 200 vol of Tris buffer containing 1 g/L Bio-Beads SM-2. To liberate PL scramblase from MBP, the proteoliposomes were incubated 3 h at room temperature in the presence of 1/40 (w/w) factor Xa. The digestion was terminated by addition of 100 μM Glu-Gly-Arg chloromethyl ketone. Completeness of the digest was monitored by SDS-PAGE. […]
# PL Scramblase activity. Scramblase activity was measured as previously described (F. Bassé, et al., supra, 1996; J. G. Stout, et al., supra, 1997 and in U.S. Ser. No. 08/790,186). […] Proteoliposomes were diluted 25-fold in Tris buffer containing 4 mM EGTA and transferred to a stirred fluorescence cuvet at 23° C. Initial fluorescence was recorded (SLM Aminco 8000 spectrof luorimeter; excitation at 470 nm, emission at 532 nm), 20 mM dithionite was added, and the fluorescence continuously monitored for a total of 120 seconds. The difference in non-quenchable fluorescence observed in presence vs. absence of CaCl2 Was attributed to Ca^2+-induced change in NBD-PC located in the outer leaflet (F. Bassé, et al., supra, 1996; J. G. Stout, et al., supra, 1997; J. C. McIntyre and R.G. Sleight, Biochemistry 30:11819-11827, 1991). Ionized [Ca^2+] was calculated using FreeCal version 4.0 software (generously provided by Dr. Lawrence F. Brass, University of Pennsylvania, Philadelphia, Pa.). […]
# Raji cells = experiment: Prothrombinase assay of transfected Raji cells; assay type: cell-based, human; settings: transformed Raji cells, 2 μM A23187, vs clones expressing GFP alone
# Experimental: Prothrombinase Assay. Prothrombinase activity of Raji cells was determined by modification of methods previously described for platelets, using the chromogenic thrombin substrate S2238 (P. J. Sims, et al., supra, 1988). Briefly, 1×10^5 Raji cells (transfected with either pEGFP-C2 or pEGFP-C2-PL scramblase) were suspended in 200 μl HBSS containing 1% BSA in the presence of 2 nM FVa, 1.4 μM prothrombin 2.5 mM CaCl2, and 4 μM dansylarginine-N-(3-ethyl-1,5-pentanediyl)amide (to inhibit feed-back activation by thrombin), and incubated at 37° C. Ca^2+-ionophore A23187 (2 μM), or DMSO (as solvent control) was added, and prothrombin conversion was initiated by addition of 2 nM Fxa. Thrombin generation was stopped after 2 minutes by dilution into 10 mM EGTA and samples were stored on ice. Aliquots were transferred to a 96-well plate, and thrombin generated was assayed in TBS containing 1% BSA in presence of 150 μM S2238 by monitoring time-dependent changes in absorbance at 405 nm using a Thermomax plate reader (Molecular Devices, Sunnyvale, Calif.). Thrombin activity was calculated using purified thrombin as standard.
molecule,measurement,setting,value
NO [hydroxylamine],PL scramblase activity after incubation with hydroxylamine,[1],near complete loss; also recorded: nearly complete inactivation
O[C@H](CS)[C@H](O)CS (racemic) [dithiothreitol],PL scramblase activity after incubation in reducing agents,PL scramblase [2],retention of normal PL scramblase activity
CNc1ccc2oc(C[C@H]3O[C@@]4(CC[C@H]3C)O[C@H]([C@H](C)C(=O)c3ccc[nH]3)[C@H](C)C[C@H]4C)nc2c1C(=O)O [A23187],PS mobilized to the cell surface in response to calcium ionophore,"[3]; HEL, W9 and Jurkat cells",notably robust responses
same,PS mobilized to the cell surface in response to calcium ionophore,[3]; Molt-4 and K562 cells,intermediate responses
same,PS mobilized to the cell surface in response to calcium ionophore,"[3]; Raji, HL60 and Dami cells",notably unresponsive
"recombinant PL scramblase: Recombinant human PL scramblase (SEQ ID NO:2) expressed in E. coli as MBP fusion, liberated by factor Xa (protein, listed as Homo sapiens) MDKQNSQMNASHPETNLPVGYPPQYPPTAFQGPPGYSGYPGPQVSYPPPPAGHSGPGPAGFPVPNQPVYNQPVYNQPVGAAGVPWMPAPQPPLNCPPGLEYLSQIDQILIHQQIELLEVLTGFETNNKYEIKNSFGQRVYFAAEDTDCCTRNCCGPSRPFTLRIIDNMGQEVITLERPLRCSSCCCPCCLQEIEIQAPPGVPIGYVIQTWHPCLPKFTIQNEKREDVLKISGPCVVCSCCGDVDFEIKSLDEQCVVGKISKHWTGILREAFTDADNFGIQFPLDLDVKMKAVMIGACFLIDFMFFESTGSQEQKSGVW",PL scramblase activity,"PL scramblase [4]; 2 mM CaCl2, mean±SD of three measurements",11.76±0.44 % of total NBD-PC flipped
same,Ca2+-dependent PL scramblase activity (transbilayer movement of NBD-PC) in liposomes,"PL scramblase [4]; PC/PS liposomes, absence or presence of 2 mM CaCl2",PL scramblase activity was observed
same,specific PL mobilizing activity relative to the endogenous protein purified from the erythrocyte membrane,"PL scramblase [4]; expressed and purified from E. coli, reconstituted in proteoliposomes",approximately 50%
same,cell capacity to catalyze the prothrombinase reaction upon entry of calcium into the cytosol,Raji cells,increase
